Measurements taken from patent publication US11046691B1 (IDEAYA BIOSCIENCES, INC., priority 2018, dated 2021).

These compounds were tested against hMAT2A (Homo sapiens (Human), UniProt P31153) (assay: Phosphate Sensor Fluorescence Assay (MAT2A enzyme inhibition)). Conditions: L-methionine 500 uM, ATP 500 uM, class symbols.
hMAT2A, sequence (P31153 whole entry): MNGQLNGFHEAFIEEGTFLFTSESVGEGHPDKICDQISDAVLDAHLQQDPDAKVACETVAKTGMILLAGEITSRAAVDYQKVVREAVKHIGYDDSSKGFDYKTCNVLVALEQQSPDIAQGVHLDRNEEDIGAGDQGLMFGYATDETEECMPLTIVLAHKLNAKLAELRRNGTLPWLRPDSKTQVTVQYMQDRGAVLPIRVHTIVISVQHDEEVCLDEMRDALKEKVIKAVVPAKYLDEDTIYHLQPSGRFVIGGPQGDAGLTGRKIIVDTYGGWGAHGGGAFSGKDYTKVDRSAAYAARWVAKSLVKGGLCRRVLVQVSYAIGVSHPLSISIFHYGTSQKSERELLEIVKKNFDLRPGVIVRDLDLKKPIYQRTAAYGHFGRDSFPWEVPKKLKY
Assay type: biochemical
Procedure: The ability of the compound of present disclosure to inhibit MAT2A enzyme was determined using the Malachite Green or Phosphate Sensor Fluorescence Assay described below.
B. Phosphate Sensor Fluorescence Assay
MAT2A enzyme is incubated with a test compound in DMSO or DMSO and its substrates (L-methionine and ATP) in a microtiter plate. The enzymatic reaction is stopped by the addition of Working Phosphate Sensor Mixture. The plate is analyzed for fluorescence at 450 nm.
Assay Buffer: 50 mM Tris, pH 7.5/50 mM KCl/10 mM MgCl2/0.01% Brij-35/1 mM DTT/0.1% BGG/40 nM PNP/6 uM 7-MEG
L-methionine: 500 uM before the addition of Working Phosphate Sensor Mixture
ATP: 500 uM before the addition of Working Phosphate Sensor Mixture
Test compounds or DMSO were added to the appropriate well suing D300e digital dispenser. 5 μl/well of Assay Buffer was added to the wells corresponding to the negative control and 5 μl/well of MAT2A was added to all the wells except for those corresponding to the negative control. After incubating the plate at room temperature for 15 minutes, 5 μl/well of the 1 mM L-methionine/1 mM ATP mixture was added to all wells. The plate was centrifuged at 1000 rpm for 1 minute and then incubated at room temperature for 1 hour. 5 μl of the Working Phosphate Sensor Mixture was added to all wells and the plate was centrifuged at 1000 rpm for 1 minute. The plate was read for fluorescence at 450 nm after exciting at 430 nm.
Percent inhibition was calculated in Chemical and Biological Information System (CBIS), (ChemInnovation Software Inc.). Curves were fitted by CBIS as % inhibition vs. log [compound concentration] using a 4-parameter inhibition model. Fit=(A+((B−A)/(1+((C/x)^D)))) Res=(y−fit)
CNc1nc(=O)n(-c2ccccc2C#N)c2cc(Cl)ccc12 [Example 219, 2-(7-chloro-4-(methylamino)-2-oxo-quinazolin-1(2H)-yl)benzonitrile] showed an IC50 of 200 to 500 nM.
In the case of CNc1nc(=O)n(-c2ncccn2)c2cc(C3CC3)ccc12 [Example 309, 7-cyclopropyl-4-(methylamino)-1-pyrimidin-2-ylhydroquinazolin-2-one], the IC50 is reported as 1000 to 10000 nM.
O=c1nc(N2CCOCC2)c2ccc(C(F)(F)F)nc2n1-c1ccccc1Cl [Example 286, 1-(2-chlorophenyl)-4-morpholin-4-yl-7-(trifluoromethyl)pyrido[2,3-d]pyrimidin-2(1H)-one] was tested, and the IC50 was < 200 nM.
In the case of [2H]C([2H])([2H])Nc1nc(=O)n(-c2ccccc2Br)c2cc(Cl)ccc12 [Example 368, 1-(2-bromophenyl)-7-chloro-4-((methyl-d3)amino)quinazolin-2(1H)-one], the IC50 is reported as < 200 nM.
For CNc1nc(=O)n(-c2ccccc2)c2cc(Cl)cc(OCC3CC3)c12 [Example 348, 7-chloro-5-(cyclopropylmethoxy)-4-(methylamino)-1-phenylhydro-quinazolin-2-one], the IC50 was < 200 nM.
For O=c1nc(N2CC[C@@H](O)C2)c2ccc(C(F)(F)F)cc2n1-c1ccccc1 [Example 145, 4-((3R)-3-hydroxypyrrolidinyl)-1-phenyl-7-(trifluoromethyl)hydro-quinazolin-2-one], the IC50 was < 200 nM.
For CNc1nc(=O)n(Cc2c[nH]cn2)c2cc(Cl)ccc12 [Example 262, 7-chloro-1-(imidazol-4-ylmethyl)-4-(methylamino)hydroquinazolin-2-one], the IC50 was < 200 nM.
With CNc1nc(=O)n(-c2cccc(C#N)c2C)c2cc(Cl)ccc12 [Example 173, 3-[7-chloro-4-(methylamino)-2-oxo-hydroquinazolinyl]-2-methylbenzene-carbonitrile] the IC50 was < 200 nM.
For CCc1cc(C2CC2)cc2c1c(NC)nc(=O)n2-c1ccccc1C [Example 410, 7-cyclopropyl-5-ethyl-4-(methylamino)-1-(2-methylphenyl)hydroquinazolin-2-one], the IC50 was < 200 nM.
Compound CNc1nc(=O)n(-c2nc(C)cs2)c2cc(Cl)ccc12 [Example 117, 7-chloro-1-(4-methyl(1,3-thiazol-2-yl))-4-(methylamino)hydroquinazolin-2-one] has an IC50 of 1000 to 10000 nM.
N#Cc1cccc(-n2c(=O)nc(N)c3ccc(C(F)(F)F)cc32)c1 [Example 140, 3-[4-amino-2-oxo-7-(trifluoromethyl)-hydroquinazolinyl]benzenecarbonitrile] was tested, and the IC50 was < 200 nM.
For Nc1nc(=O)n(-c2ccccc2Cl)c2cc(C(F)(F)F)ccc12 [Example 99, 4-amino-1-(2-chlorophenyl)-7-(trifluoromethyl)hydroquinazolin-2-one], the IC50 was < 200 nM.
For Cc1ncccc1-n1c(=O)nc(NCC(F)F)c2ccc(C(F)(F)F)cc21 [Example 282, 4-((2,2-difluoroethyl)amino)-1-(2-methylpyridin-3-yl)-7-(trifluoromethyl)-quinazolin-2(1H)-one], the IC50 was < 200 nM.
With CN(CC(F)(F)F)c1nc(=O)n(-c2ccccc2)c2cc(Cl)ccc12 [Example 237, 7-chloro-4-[methyl(2,2,2-trifluoroethyl)-amino]-1-phenylhydroquinazolin-2-one] the IC50 was < 200 nM.
CN(C)c1nc(=O)n(-c2cccc(NS(=O)(=O)C3(C)CC3)c2)c2cc(Cl)ccc12 [Example 211] gave an IC50 of 500 to 1000 nM.
O=c1nc(N2CC[C@H]2CO)c2ccc(Cl)cc2n1-c1ccccc1 [Example 172, (S)-7-chloro-4-(2-(hydroxymethyl)-azetidin-1-yl)-1-phenylquinazolin-2(1H)-one] was tested, and the IC50 was < 200 nM.
In the case of Cc1ccccc1-n1c(=O)nc(N2CC[C@@H](O)C2)c2ccc(C(F)(F)F)cc21 [Example 128, 4-((3R)-3-hydroxypyrrolidin-1-yl)-1-(2-methylphenyl)-7-(trifluoromethyl)hydro-quinazolin-2-one], the IC50 is reported as < 200 nM.
In the case of CS(=O)(=O)CCNc1nc(=O)n(-c2ccccc2Cl)c2nc(C(F)(F)F)ccc12 [Example 264, 1-(2-chlorophenyl)-4-{[2-(methyl-sulfonyl)ethyl]amino}-7-(trifluoro-methyl)pyrido [2,3-d]pyrimidin-2 (1H)-one], the IC50 is reported as < 200 nM.
In the case of O=c1nc(Nc2cnoc2)c2cc(Cl)c(Br)cc2n1-c1ccccc1Cl [Example 412, 7-bromo-6-chloro-1-(2-chlorophenyl)-4-(isoxazol-4-ylamino)hydroquinazolin-2-one], the IC50 is reported as < 200 nM.
O=c1[nH]c(=O)n(-c2cnccc2Cl)c2nc(C(F)(F)F)ccc12 [Example 358, 1-(4-chloropyridin-3-yl)-7-(trifluoro-methyl)pyrido[2,3-d]pyrimidine-2,4(1H,3H)-dione] was tested, and the IC50 was < 200 nM.
For CNc1nc(=O)n(-c2ccccc2)c2cc(Cl)cc(OCCO)c12 [Example 185, 7-chloro-5-(2-hydroxyethoxy)-4-(methylamino)-1-phenylhydro-quinazolin-2-one], the IC50 was < 200 nM.
For N#CC1(Nc2nc(=O)n(-c3ccccc3Cl)c3nc(C(F)(F)F)ccc23)CCC1 [Example 277, 1-((1-(2-chlorophenyl)-2-oxo-7-(trifluoromethyl)-1,2-dihydropyrido[2,3-d]pyrimidin-4-yl)amino)cyclobutane-1-carbonitrile], the IC50 was < 200 nM.
[2H]C([2H])([2H])N(c1nc(=O)n(-c2ccccc2Cl)c2nc(C(F)(F)F)ccc12)C([2H])([2H])[2H] [Example 339, 4-(bis(methyl-d3)amino)-1-(2-chloro-phenyl)-7-(trifluoromethyl)-pyrido[2,3-d]pyrimidin-2(1H)-one] was tested, and the IC50 was < 200 nM.
For O=c1nc(NCC2CC2)c2cc(Cl)c(C3CC3)cc2n1-c1ccccc1Cl [Example 411], the IC50 was < 200 nM.
For O=c1nc(N[C@@H]2C[C@@H]2F)c2ccc(C3CC3)cc2n1-c1ccccc1Cl [Example 413, 4-[((2S,1R)-2-fluorocyclopropyl)amino]-1-(2-chlorophenyl)-7-cyclopropyl-hydroquinazolin-2-one], the IC50 was < 200 nM.
In the case of CNc1nc(=O)n(-c2ccccc2)c2nc(C(F)(F)F)ccc12 [Example 184, 4-(methylamino)-1-phenyl-7-(trifluoromethyl)pyrido[2,3-d]-pyrimidin-2(1H)-one], the IC50 is reported as < 200 nM.
In the case of O=c1nc(NCC(F)F)c2ccc(C(F)(F)F)cc2n1-c1ncccn1 [Example 122, 4-[(2,2-difluoroethyl)amino]-1-pyrimidin-2-yl-7-(trifluoromethyl)hydro-quinazolin-2-one], the IC50 is reported as < 200 nM.
CNc1nc(=O)n(-c2cccc(C(=O)O)c2)c2cc(Cl)ccc12 [Example 133, 3-[7-chloro-4-(methylamino)-2-oxo-hydroquinazolin-1-yl]benzoic acid] was tested, and the IC50 was < 200 nM.
With O=c1nc(N2CC[C@@H]2CO)c2ccc(Cl)cc2n1-c1ccccc1 [Example 187, (R)-7-chloro-4-(2-(hydroxymethyl)-azetidin-1-yl)-1-phenylquinazolin-2(1H)-one] the IC50 was 200 to 500 nM.
With O=c1nc(NCC(F)F)c2ccc(C(F)(F)F)nc2n1-c1ccccc1 [Example 137, 4-((2,2-difluoroethyl)amino)-1-phenyl-7-(trifluoromethyl)pyrido[2,3-d]pyrimidin-2(1H)-one] the IC50 was < 200 nM.
In the case of CNc1nc(=O)n(-c2ccccc2Cl)c2cc(Cl)ccc12 [Example 218, 7-chloro-1-(2-chlorophenyl)-4-(methylamino)quinazolin-2(1H)-one], the IC50 is reported as < 200 nM.
With CC1(O)CCN(c2nc(=O)n(-c3ccccc3Cl)c3nc(C(F)(F)F)ccc23)C1 (racemic) [Example 255] the IC50 was < 200 nM.
CNc1nc(=O)n(-c2cccc(O)c2F)c2cc(Cl)ccc12 [Example 333, 7-chloro-1-(2-fluoro-3-hydroxyphenyl)-4-(methylamino)quinazolin-2(1H)-one] was tested, and the IC50 was < 200 nM.
With CNc1nc(=O)n(-c2cccnc2)c2cc(C(F)(F)F)ccc12 [Example 341, 4-(methylamino)-1-(pyridin-3-yl)-7-(trifluoromethyl)hydroquinazolin-2-one] the IC50 was < 200 nM.
For Cc1ncccc1-n1c(=O)nc(N)c2ccc(C(F)(F)F)nc21 [Example 263], the IC50 was < 200 nM.
With O=c1nc(NCC(F)(F)F)c2ccc(C(F)(F)F)nc2n1-c1ccccc1Cl [Example 389, 1-(2-chlorophenyl)-4-[(2,2,2-trifluoro-ethyl)amino]-7-(trifluoro-methyl)-pyrido[2,3-d]pyrimidin-2(1H)-one] the IC50 was < 200 nM.
For O=c1nc(Nc2ccccn2)c2ccc(C(F)(F)F)nc2n1-c1ccccc1Cl [Example 256, 1-(2-chlorophenyl)-4-(2-pyridylamino)-7-(trifluoromethyl)pyrido[2,3-d]-pyrimidin-2(1H)-one], the IC50 was < 200 nM.

Same assay, conditions: L-methionine 500 uM, ATP 500 uM, numeric bound
For O=c1[nH]c(=O)n(-c2ccccc2Cl)c2nc(C(F)(F)F)ccc12 [Example 288, 1-(2-chlorophenyl)-4-hydroxy-7-(trifluoromethyl)hydropyridino[2,3-d]-pyrimidin-2-one], the IC50 was > 10000 nM.
With O=c1nc(NCC(F)F)c2ccc(Cl)cc2n1-c1ccc2nccn2c1 [Example 249, 4-[(2,2-difluoroethyl)amino]-7-chloro-1-(4-hydroimidazo[1,2-a]pyridin-6-yl)-hydroquinazolin-2-one] the IC50 was > 10000 nM.
